The NIST ThermoML archive (doi:10.1016/j.jct.2012.09.028)
Numbers after ± are expanded uncertainties.

Experiment: molar heat capacity at constant pressure
Details: 101.33 kPa, Crystal, Vacuum adiabatic calorimetry

O=C[C@H](O)[C@@H](O)[C@H](O)CO [D-xylose]
Details | molar heat capacity at constant pressure [J/K/mol]
0.5 K | 0.0003448
1 K | 0.0013
1.5 K | 0.003533
1.9 K | 0.006645
2 K | 0.007825 ± 0.01
2.04 K | 0.008242
2.083 K | 0.008788
2.243 K | 0.01097
2.3 K | 0.01187
2.472 K | 0.01471
2.5 K | 0.01512 ± 0.01
2.538 K | 0.01596
2.632 K | 0.01783
2.787 K | 0.02124 ± 0.041
2.901 K | 0.02401 ± 0.041
3 K | 0.02656 ± 0.01
3.078 K | 0.02907 ± 0.041
3.204 K | 0.03288 ± 0.041
3.413 K | 0.04037 ± 0.041
3.5 K | 0.04351 ± 0.01
3.544 K | 0.04525 ± 0.041
3.773 K | 0.05561 ± 0.041
3.939 K | 0.06374 ± 0.041
4 K | 0.06758 ± 0.011
4.203 K | 0.07931 ± 0.041
4.383 K | 0.09097 ± 0.041
4.5 K | 0.1006 ± 0.011
4.66 K | 0.1124 ± 0.041
4.87 K | 0.1305 ± 0.041
5 K | 0.1446 ± 0.011
5.179 K | 0.1619 ± 0.041
5.436 K | 0.1916 ± 0.041
5.5 K | 0.2018 ± 0.012
5.775 K | 0.2386 ± 0.041
6 K | 0.2744 ± 0.013
6.082 K | 0.2866 ± 0.041
6.466 K | 0.3591 ± 0.041
6.5 K | 0.3648 ± 0.014
6.745 K | 0.4181 ± 0.041
7 K | 0.4752 ± 0.015
7.159 K | 0.5189 ± 0.042
7.497 K | 0.6119 ± 0.042
7.5 K | 0.6076 ± 0.016
7.959 K | 0.7584 ± 0.042
8 K | 0.7638 ± 0.018
8.353 K | 0.8969 ± 0.043
8.5 K | 0.945 ± 0.019
8.863 K | 1.101 ± 0.043
9 K | 1.152 ± 0.021
9.3 K | 1.292 ± 0.043
9.5 K | 1.385 ± 0.023
9.864 K | 1.569 ± 0.044
10 K | 1.644 ± 0.025
10.35 K | 1.83 ± 0.045
10.97 K | 2.212 ± 0.045
11 K | 2.219 ± 0.029
11.52 K | 2.546 ± 0.047
12 K | 2.871 ± 0.034
12.19 K | 2.736 ± 0.047
12.72 K | 3.408 ± 0.049
13 K | 3.59 ± 0.039
13.56 K | 4.028 ± 0.051
14 K | 4.364 ± 0.043
14.25 K | 4.551 ± 0.052
15 K | 5.182 ± 0.048
15.07 K | 5.238 ± 0.054
15.84 K | 5.872 ± 0.055
16 K | 6.036 ± 0.052
16.59 K | 6.471 ± 0.057
17 K | 6.917 ± 0.056
17.61 K | 7.437 ± 0.059
18 K | 7.819 ± 0.06
18.42 K | 8.194 ± 0.061
18.99 K | 8.794 ± 0.062
19 K | 8.734 ± 0.064
20 K | 9.657 ± 0.067
20.27 K | 9.969 ± 0.064
21.17 K | 10.74 ± 0.055
22.58 K | 12.06 ± 0.058
23.64 K | 13.08 ± 0.059
25 K | 14.25 ± 0.076
25.13 K | 14.39 ± 0.06
26.29 K | 15.41 ± 0.061
27.98 K | 16.85 ± 0.06
29.32 K | 17.97 ± 0.059
30 K | 18.55 ± 0.079
31.15 K | 19.42 ± 0.063
32.68 K | 20.56 ± 0.065
34.69 K | 22.14 ± 0.067
35 K | 22.47 ± 0.086
36.33 K | 23.55 ± 0.069
38.59 K | 25.09 ± 0.071
40 K | 26.03 ± 0.093
40.53 K | 26.51 ± 0.073
42.93 K | 27.98 ± 0.075
45 K | 29.36 ± 0.1
45.13 K | 29.46 ± 0.078
47.76 K | 31.18 ± 0.08
50 K | 32.58 ± 0.11
50.2 K | 32.51 ± 0.082
53.12 K | 34.56 ± 0.086
55 K | 35.68 ± 0.11
55.82 K | 36.43 ± 0.088
59.09 K | 38.3 ± 0.091
60 K | 38.82 ± 0.12
62.21 K | 40.2 ± 0.094
65 K | 41.94 ± 0.12
65.77 K | 42.39 ± 0.097
69.15 K | 44.37 ± 0.1
70 K | 45.05 ± 0.13
73.12 K | 46.67 ± 0.1
75 K | 48.14 ± 0.14
76.88 K | 49.05 ± 0.11
80 K | 51.21 ± 0.14
81.26 K | 51.82 ± 0.11
85 K | 54.27 ± 0.15
85.51 K | 54.66 ± 0.12
90 K | 57.3 ± 0.26
90.3 K | 57.7 ± 0.2
95 K | 60.32 ± 0.26
95.15 K | 60.59 ± 0.2
100 K | 63.33 ± 0.26
100.35 K | 63.68 ± 0.2
105.25 K | 66.61 ± 0.21
110 K | 69.28 ± 0.27
110.61 K | 69.55 ± 0.21
115.43 K | 72.27 ± 0.21
120 K | 75.18 ± 0.28
120.64 K | 75.36 ± 0.21
125.54 K | 78.61 ± 0.22
130 K | 81.02 ± 0.28
130.77 K | 81.56 ± 0.22
135.74 K | 84.75 ± 0.22
140 K | 86.83 ± 0.29
140.87 K | 87.47 ± 0.22
145.76 K | 90.11 ± 0.23
150 K | 92.61 ± 0.29
151.03 K | 93.15 ± 0.23
155.98 K | 95.92 ± 0.23
160 K | 98.36 ± 0.3
161.11 K | 99.11 ± 0.23
166.15 K | 102.13 ± 0.23
170 K | 104.1 ± 0.3
171.25 K | 104.92 ± 0.24
176.34 K | 107.5 ± 0.24
180 K | 109.83 ± 0.31
181.48 K | 110.56 ± 0.24
186.59 K | 113.51 ± 0.24
190 K | 115.56 ± 0.32
191.69 K | 116.09 ± 0.25
196.81 K | 119.53 ± 0.25
200 K | 121.29 ± 0.32
201.94 K | 122.16 ± 0.25
207.17 K | 125.24 ± 0.25
210 K | 127.02 ± 0.33
212.26 K | 128.07 ± 0.25
217.5 K | 130.91 ± 0.26
220 K | 132.76 ± 0.33
222.61 K | 134.51 ± 0.26
227.74 K | 137.35 ± 0.26
230 K | 138.51 ± 0.34
232.87 K | 140.48 ± 0.26
237.95 K | 142.93 ± 0.27
240 K | 144.27 ± 0.34
243.02 K | 146.31 ± 0.27
248.07 K | 148.9 ± 0.27
250 K | 150.04 ± 0.35
253.18 K | 152.43 ± 0.27
258.24 K | 154.94 ± 0.28
260 K | 155.83 ± 0.36
263.22 K | 158.02 ± 0.28
268.36 K | 160.56 ± 0.28
270 K | 161.64 ± 0.36
273.15 K | 163.47 ± 0.36
273.41 K | 163.59 ± 0.28
278.46 K | 166.47 ± 0.28
280 K | 167.46 ± 0.37
283.51 K | 169.47 ± 0.29
288.47 K | 172.37 ± 0.29
290 K | 173.3 ± 0.37
293.61 K | 175.31 ± 0.29
298.15 K | 178.08 ± 0.38
298.67 K | 177.87 ± 0.29
300 K | 179.16 ± 0.38
303.66 K | 181.61 ± 0.3
